Data reported in ChEMBL document CHEMBL3297728, “Synthesis and antituberculosis activity of novel 5-styryl-4-(hetero)aryl-pyrimidines via combination of the Pd-catalyzed Suzuki cross-coupling and S(N)(H) reactions” (Bioorg Med Chem Lett, 2014).
Converted amounts (≈) assume the structure as drawn.

System: Mycobacterium tuberculosis
Assay: Antimycobacterial activity against rifampin- and Isoniazid- resistant Mycobacterium tuberculosis Beijing harboring Ser 531-Leu 315 rpoB mutant and Ser-Thr katG mutant after 10 days by microbroth dilution method
Type: functional

SMILES	MIC [µg/mL]
Brc1cncnc1-c1cccs1	0.7 (≈ 2.9 µM)
Brc1cncnc1-c1ccco1	1.5 (≈ 6.67 µM)
C(=C\c1cncnc1-c1ccc(-c2cccs2)s1)/c1ccc(-c2ccccc2)cc1	1.5 (≈ 3.55 µM)
